Numbers after ± are expanded uncertainties.

For this data set the following is noted: Crystal; visual observation.

Regarding `CC(C)NCC(O)COc1cccc2ccccc12.Cl` (configuration not stated) [propranolol hydrochloride], the Normal melting temperature came to 164.80 ± 0.4 °C.

In the case of `CC(C)NCC(O)COc1ccc(CC(N)=O)cc1` (configuration not stated) [2-(4-(2-hydroxy-3-(isopropylamino)propoxy)phenyl)acetamide], the Normal melting temperature turned out to be 154.50 ± 0.4 °C.

These data come from the NIST ThermoML archive (doi:10.1016/j.jct.2012.05.021).
